The values below come from patent EP4745134A1 (Jiangsu Yahong Meditech Co., Ltd., priority 2023, dated 2025).

One test deals with HCT116 MTAP KO cells. Briefly: Inhibitory activity against cell proliferation (CellTiter Glo, 6 days), HCT116 MTAP KO. The format is cell-based. To be noted: for IC50: HCT116 MTAP KO cells, 6 days, CellTiter Glo, read-out: HCT116 MTAP KO IC50; for Selectivity HCT 116-WT/ HCT116 MTAP KO: ratio of IC50 HCT116-WT / HCT116 MTAP KO. The gist of the method:
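Luminescence read-out (CellTiter Glo, 10 min shaking at room temperature) after 6 days of compound exposure; IC50 fitted against DMSO controls. Top dose 10000 nM, 4-fold steps, 8 points; 250 cells/well in McCoy's 5A + 10% FBS.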
On the technique in general: Cellular ATP, detected with luciferase, serves as a proxy for viable cell number.

The subject of the next test is HCT116-WT cells. Briefly: Inhibitory activity against cell proliferation (CellTiter Glo, 6 days), HCT116-WT. The format is cell-based. The settings on record: HCT116-WT cells, 6 days, CellTiter Glo, read-out: HCT116-WT IC50. The method, then:
HCT116-WT (ATCC, CCL-247) and HCT116 MTAP KO (Nanjing Cobioer, CBP75002) cells were seeded into white low-transparency sterile 96-well cell culture plates at a density of 250 cells per well respectively, and the culture medium was McCoy's 5A Medium+10% FBS. The plates were placed under the condition of 37°C and 5% CO2 to be cultured overnight. The cells were treated with 4-fold serially diluted compounds of 8 concentration points starting at an initial concentration of 10000 nM, and the last two columns were used as control wells to which only DMSO was added. The drug-treated cells were further cultured for 6 days. On day 7, CellTiter Glo® reagent was added at 50 uL per well, and after reaction under shaking for 10 minutes at room temperature, the chemiluminescence signals were detected for the well plates through the chemiluminescence detection method using a BIOTEK H1 multifunctional microplate-reader. The IC50 values for inhibition of the compounds on cell viability were calculated in X1fit 5.0 software. Table 2. IC50 values for inhibition of the compounds on HCT116 MTAP KO/WT cell growth

Like-named read-outs stand apart in the source and are kept apart here.

What is called IC50 is the midpoint of a concentration-inhibition curve. For `Cc1cc2cc(C(=O)N(Cc3ccc(-c4cnn(C)n4)cn3)N(C)c3ncccn3)ccc2nc1N` [Example 228, 2-amino-N',3-dimethyl-N-((5-(2-methyl-2H-1,2,3-triazol-4-yl)pyridin-2-yl)methyl)-N'-(pyrimidin-2-yl)quinoline-6-carbohy drazide], the IC50 in the test with HCT116 MTAP KO cells (Homo sapiens, HCT-116, 144 h) was 0.051 µM; with HCT116-WT cells (144 h), 1.32 µM. The “Selectivity HCT 116-WT/ HCT116 MTAP KO” value in the test on HCT116 MTAP KO cells is 25.92.
On the same counts, the results for `Cc1cc2cc(C(=O)N(Cc3ccc(-c4cccs4)cn3)N(C)c3ncccn3)ccc2nc1N` [Example 214, 2-amino-N',3-dimethyl-N'-(pyrimidin-2-yl)-N-((5-(thien-2-yl)pyridin-2-yl)methyl) quinoline-6-carbohydrazide] are 0.029 µM, 0.694 µM and 23.93.
On the same counts, the results for `Cc1cc2cc(C(=O)N(Cc3ccc(-c4nccs4)cn3)N(C)c3ncccn3)ccc2nc1N` [Example 234, 2-amino-N',3-dimethyl-N'-(pyrimidin-2-yl)-N-((5-(thiazol-2-yl)pyridin-2-yl)methyl)quinoline-6-carbohydrazide] are 0.02 µM, 0.75 µM and 37.50.
For `Cc1cc2nc(N)c3cnn(C)c3c2cc1C(=O)N1CCCN1c1ncc(-c2cnc3c(cnn3C)c2)cc1F` [Example 482, (4-amino-1,7-dimethyl-1H-pyrazolo[4,3-c]quinolin-8-yl)(2-(3-fluoro-5-(1-methyl-1H-pyrazolo[3,4-b]pyridin-5-yl)pyridin-2-yl)pyrazolidin-1-yl)methanone], in that order: 0.06 µM, 5.37 µM and 89.47.
With `Cc1cc2cc(C(=O)N(Cc3ccc(-c4cnc5nn(C)cc5c4)cn3)N(C)c3ncccn3)ccc2nc1N` [Example 150, 2-amino-N',3-dimethyl-N-((5-(2-methyl-2H-pyrazolo[3,4-b]pyridin-5-yl)pyridin-2-yl)methyl)-N'-(pyrimidin-2-yl)quinoline-6-carbohydrazide], the IC50 in the test on HCT116 MTAP KO cells (Homo sapiens, HCT-116, 144 h) worked out at 0.029 µM; in the test on HCT116-WT cells (144 h), 0.708 µM. For the same compound, in the test with HCT116 MTAP KO cells, the “Selectivity HCT 116-WT/ HCT116 MTAP KO” value amounted to 24.41.
On to `Cc1cc2cc(C(=O)N(Cc3ccc(-c4cnc5c(cnn5C)c4)cn3)N(C)c3ncccn3)ccc2nc1N` [Example 198, 2-amino-N',3-dimethyl-N-((5-(1-methyl-1H-pyrazolo[3,4-b]pyridin-5-yl)pyridin-2-yl)methyl)-N'-(pyrimidin-2-yl)quinoline-6-carbohydrazide], for which the figures for the IC50 in the test with HCT116 MTAP KO cells and in the test on HCT116-WT cells were 0.032 µM and 0.835 µM, respectively. In addition, the “Selectivity HCT 116-WT/ HCT116 MTAP KO” value in the test with HCT116 MTAP KO cells came to 26.09.
On the same counts, the results for `Cc1cc2nc(N)c3cnn(C)c3c2cc1C(=O)N1C(C)CCN1c1ncccc1F` (stereo not drawn) [Example 376, (4-amino-1,7-dimethyl-1H-pyrazolo[4,3-c]quinolin-8-yl)(2-(3-fluoropyridin-2-yl)-5-methylpyrazolidin-1-yl)methanone] are 0.105 µM, 3.73 µM and 35.48.
On to `Cc1cc2cc(C(=O)N(Cc3ccc(-c4ccc(N(C)CCO)nc4)cn3)N(C)c3ncccn3)ccc2nc1N` [Example 246, 2-amino-N-((6'-((2-hydroxyethyl) (methyl)amino)-[3,3'-bipyridine]-6-yl)methyl)-N',3-dimethyl-N'-(pyrimidin-2-yl)quinoline-6-carbohydrazide], for which the IC50 with HCT116 MTAP KO cells (Homo sapiens, HCT-116, 144 h) was found to be 0.018 µM; in the test with HCT116-WT cells (144 h) it was 0.482 µM. Besides, the “Selectivity HCT 116-WT/ HCT116 MTAP KO” value in the test on HCT116 MTAP KO cells stood at 26.78.
For `Cc1cc2cc(C(=O)N(Cc3ccc(-c4cnc5c(cnn5C)c4)cn3)N(C)c3ncccn3)ccc2nc1N` [Example 190, 2-amino-N',3-dimethyl-N-((5-(1-methyl-1H-pyrazolo[3,4-b]pyridin-5-yl)pyridin-2-yl)methyl)-N'-(pyrimidin-2-yl)quinoline-6-carbohydrazide], in that order: 0.032 µM, 0.835 µM and 26.09.
On the same counts, the results for `[2H]C([2H])([2H])c1cc2cc(C(=O)N(Cc3ccc(-c4nncs4)cn3)N(c3ncccn3)C3CC3)ccc2nc1N` [Example 315, N-((5-(1,3,4-thiadiazol-2-yl)pyridin-2-yl)methyl)-2-amino-N'-cyclopropyl-3-(methyl-d3)-N'-(pyrimidin-2-yl)quinoline-6-carbohydrazide] are 0.054 µM, 1.35 µM and 24.96.
Take `[2H]C([2H])([2H])c1cc2cc(C(=O)N(Cc3ccc(C(F)(F)F)cn3)Nc3ncccn3)ccc2nc1N` [Example 312, 2-amino-3-(methyl-D3)-N'-(pyrimidin-2-yl)-N-((5-(trifluoromethyl)pyridin-2-yl)methyl)quinoline-6-carbohydrazide]: the IC50 in the test with HCT116 MTAP KO cells (Homo sapiens, HCT-116, 144 h) was 0.094 µM; in the test on HCT116-WT cells (144 h), 3.04 µM. Further, the “Selectivity HCT 116-WT/ HCT116 MTAP KO” value in the test with HCT116 MTAP KO cells is 32.33.
For `Cc1cc2cc(C(=O)N(Cc3ccc(-c4cnoc4)cn3)N(C)c3ncccn3)ccc2nc1N` [Example 182, 2-amino-N-((5-(isoxazol-4-yl)pyridin-2-yl)methyl)-N',3-dimethyl-N'-(pyrimidin-2-yl)quinoline-6-carbohydrazide], in that order: 0.131 µM, 3.39 µM and 25.89.
Take `Cc1cc2cc(C(=O)N(Cc3ccc(C(F)(F)C(F)(F)F)cn3)N(C)c3ncccn3)ccc2nc1N` [Example 293, 2-amino-N,3-dimethyl-N-((5-(perfluoroethyl)pyridin-2-yl)methyl)-N-(pyrimidin-2-yl)q uinoline-6-carbohydrazide]: the IC50 in the test with HCT116 MTAP KO cells (Homo sapiens, HCT-116, 144 h) was determined as 0.025 µM; with HCT116-WT cells (144 h), 0.666 µM. Further, the “Selectivity HCT 116-WT/ HCT116 MTAP KO” value with HCT116 MTAP KO cells worked out at 26.64.
For `Cc1cc2cc(C(=O)N(Cc3ccc(-c4ccc(N5CCN(C)C(=O)C5)nc4)cn3)N(C)c3ncccn3)ccc2nc1N` [Example 258, 2-amino-N',3-dimethyl-N-((6'-(4-methyl-3-oxopiperazin-1-yl)-[3,3'-bipyridin]-6-yl)methyl)-N'-(pyrimidin-2-yl)quinoline-6-carbohydrazide], in that order: 0.031 µM, 0.716 µM and 23.10.
On the same counts, the results for `Cc1cc2cc(C(=O)N(Cc3ccc(I)cn3)N(C)c3ncccn3)ccc2nc1N` [Example 263, 2-amino-N-((5-iodopyridin-2-yl)methyl)-N',3-dimethyl-N'-(pyrimidin-2-yl)quinoline-6-carbohydrazide] are 0.017 µM, 0.404 µM and 23.76.
On the same counts, the results for `CN(c1ccccc1F)N(Cc1ccc(C(F)(F)F)cn1)C(=O)c1ccc2nc(N)c3cnn(C)c3c2c1` [Example 281, 4-amino-N'-(2-fluorophenyl)-N',1-dimethyl-N-((5-(trifluoromethyl)pyridin-2-yl)methyl)-1H-pyrazolo[4,3-c]quinoline-8-carb ohydrazide] are 0.0033 µM, 0.042 µM and 12.73.
Consider `CCn1cc(-c2ccc(CN(C(=O)c3ccc4nc(N)c(C)cc4c3)N(C)c3ncccn3)nc2)cn1` [Example 206, 2-amino-N-((5-(1-ethyl-1H-pyrazol-4-yl)pyridin-2-yl)methyl)-N',3-dimethyl-N'-(pyrimidin-2-yl)quinoline-6-carbohydrazide], for which the IC50 in the test on HCT116 MTAP KO cells (Homo sapiens, HCT-116, 144 h) stood at 0.018 µM; in the test on HCT116-WT cells (144 h), 0.921 µM. In the test on HCT116 MTAP KO cells, the “Selectivity HCT 116-WT/ HCT116 MTAP KO” value turned out to be 51.17.
As to `Cc1cc2cc(C(=O)N(Cc3ccc(-c4cnn(C(C)(C)C)c4)cn3)N(C)c3ncccn3)ccc2nc1N` [Example 205, 2-amino-N-((5-(1-(tert-butyl)-1H-pyrazol-4-yl)pyridin-2-yl)methyl)-N',3-dimethyl-N'-(pyrimidin-2-yl)quinoline-6-carbohydr azide], the half-inhibitory concentration (IC50) came to 0.058 µM in the test with HCT116 MTAP KO cells (Homo sapiens, HCT-116, 144 h) and 1.17 µM in the test with HCT116-WT cells (144 h). Besides, the “Selectivity HCT 116-WT/ HCT116 MTAP KO” value in the test with HCT116 MTAP KO cells worked out at 20.14.
For `Cc1cc2cc(C(=O)N(Cc3ccc(C(F)(F)F)cn3)n3ccc4ccccc43)ccc2nc1N` [Example 28, 2-amino-N-(1H-indol-1-yl)-3-methyl-N-((5-(trifluoromethyl)pyridin-2-yl)methyl)quinoline-6-carboxamide], in that order: 0.139 µM, 2.53 µM and 18.22.
Take `Cc1cc2cc(C(=O)N(Cc3ccc(-c4ccc(N(C)C5CCC5)nc4)cn3)N(C)c3ncccn3)ccc2nc1N` [Compound 261, 2-amino-N-((6'-(cyclobutyl(methyl)amino)-[3,3'-bipyridin]-6-yl)methyl)-N',3-dim ethyl-N'-(pyrimidin-2-yl)quinoline-6-carb ohydrazide]: the IC50 amounted to 0.04 µM in the test with HCT116 MTAP KO cells (Homo sapiens, HCT-116, 144 h) and 0.684 µM in the test with HCT116-WT cells (144 h). Moreover, the “Selectivity HCT 116-WT/ HCT116 MTAP KO” value with HCT116 MTAP KO cells is listed as 17.10.
